Reference: patent US10947196B2, “Beta adrenergic agonist and methods of using the same” (CURASEN THERAPEUTICS, INC., priority 2019, dated 2021)
Values belong to the molecule of their own block, whether it stands above or below them.

Legend:
[1] = Microsomal stability (rat); format: in vitro ADME; conditions: liver microsomes 0.5 mg/mL; method gives CLint in μL/min/mg protein
Method: (§1) The master solution was prepared as follows.
(§2) With NADPH: 10 μL of 20 mg/mL liver microsomes and 40 μL of 10 mM NADPH were added to the incubations. The final concentrations of microsomes and NADPH were 0.5 mg/mL and 1 mM, respectively.
(§3) Without NADPH: 10 μL of 20 mg/mL liver microsomes and 40 μL of ultra-pure H2O were added to the incubations. The final concentration of microsomes was 0.5 mg/mL.
(§4) The reaction was started with the addition of 4 μL of 3, 10, 30 and 100 μM test compound solution or control compound solution at the final concentration of 0.03, 0.1, 0.3 and 1 μM and carried out at 37° C.
(§5) Aliquots of 50 μL were taken from the reaction solution at 0, 15, 30, 45 and 60 min. The reaction was stopped by the addition of 4 volumes of cold acetonitrile with IS (100 nM alprazolam, 200 nM labetalol, 200 nM caffeine and 2 μM ketoprofen). Samples were centrifuged at 3, 220 g for 40 minutes. Aliquot of 100 μL of the supernatant was mixed with 100 μL of ultra-pure H2O and then used for LC-MS/MS analysis.
(§6) Peak areas were determined from extracted ion chromatograms. The slope value, k, was determined by linear regression of the natural logarithm of the remaining percentage of the parent drug vs. incubation time curve.
(§7) The in vitro half-life (in vitro t1/2) was determined from the slope value: in vitro t1/2=−(0.693/k) […]

[2] = Dog pharmacokinetic studies; format: in vivo, male Beagle dogs; conditions: for AUC(0-inf) / Cmax / MRT / Tmax: male, Beagle
Method: The rat pharmacokinetics studies of exemplary compounds 03-3, 03-5, and 03-115 were conducted with male SD rats. These rats were typically about 6-8 weeks old, weighing 200 g to 300 g. Animals were fasted overnight and free access to food 4 hours after dosing. A required volume of vehicle was added to reach the target concentration of the test article and vehicle component to prepare for the dosing. The dosing vehicle was PEG400 or 30% PEG400 in saline for IV, or 0.5% methylcellulose in water for PO. For IV dosing, the animals were administered intravenously via tail vein. For PO dosing, the animals were administered via oral gavage. After dosing, blood sample was collected (˜0.2 mL per time point) through jugular vein or heart puncture. Blood of each sample was transferred into plastic micro centrifuge tubes containing EDTA-K2. Collection tubes with blood samples and anticoagulant were inverted several times for proper mixing of the tube contents and then placed on wet ice. The blood samples were centrifuged at 2000 g for 5 minutes at 4° C. to obtain plasma which was stored in a freezer at −75±15° C. prior to analysis. Samples were analyzed using LC-MS/MS. WinNonlin were used for pharmacokinetic calculations.
Dog pharmacokinetics studies of exemplary compounds 03-3, 03-5, and 03-115 were conducted substantially similarly to the rat pharmacokinetic studies, instead using male Beagle dogs. Animals for PO studies were food fasted overnight prior to dosing and were fed approximately 2 hours after dosing. Animals for IV studies had free access to food and water. Blood samples were collected through venipuncture of peripheral veins except the dosing vein.

[3] = Plasma protein binding, equilibrium dialysis (rat); format: in vitro ADME; conditions: pH 7.4, equilibrium dialysis 6 hours, read-out: PPB (rat), percent of unbound fraction
Method: Preparation of 100 mM sodium phosphate and 150 mM NaCl buffer (PBS). A basic solution was prepared by dissolving 14.2 g/L Na2HPO4 and 8.77 g/L NaCl in deionized water and the solution could be stored at 4° C. for up to 7 days. An acidic solution was prepared by dissolving 12.0 g/L NaH2PO4 and 8.77 g/L NaCl in deionized water and the solution could be stored at 4° C. for up to 7 days. The basic solution was titrated with the acidic solution to pH 7.4 and store at 4° C. for up to 7 days. pH was checked on the day of experiment and was adjusted if outside specification of 7.4±0.1.
Thawing of the frozen plasma (stored at −80° C.). Frozen plasma was thawed immediately at room temperature. The plasma was centrifuged at 3,220 g for 10 minutes to remove clots and supernatant was collected into a fresh tube. The pH of the plasma was checked and recorded. Note: a). Only use plasma that has been thawed no more than twice since arrival. b). Only use plasma within the range of pH 7 to pH 8.
Preparation of working solutions. The working solutions of test compound and control compound ketoconazole were prepared in DMSO at the concentration of 200 μM. And then 3 μL of working solutions was removed to mix with 597 μL of rat plasma to achieve a final concentration of 1 μM (0.5% DMSO). Plasma samples were vortexed thoroughly.
Preparation of dialysis membranes. The dialysis membranes were soaked in ultrapure water for 60 minutes to separate strips, then in 20% ethanol for 20 minutes, finally in dialysis buffer for 20 minutes.
Procedure for equilibrium dialysis. The dialysis apparatus was assembled according to the manufacturer's instruction. Each Cell was filled with 120 μL of spiked plasma sample and dialyzed against equal volume of dialysis buffer (PBS). The assay was performed in duplicate. The dialysis plate was sealed and incubated in an incubator at 37° C. with 5% CO2 at 100 rpm for 6 hours. At the end of incubation, seal was removed and 50 μL of samples from both buffer and plasma chambers were transferred to wells of a 96-well plate.
Procedure for sample preparation. […]

[4] = Microsomal stability (dog); format: in vitro ADME; conditions: liver microsomes 0.5 mg/mL; method gives CLint in μL/min/mg protein
Method: as §1, §2, §3, §4, §5, §6, §7

Compound: CC(C)(C)NC[C@H](O)c1cccc(C(F)(F)F)n1 [Compound 03-3]
Microsomal stability, Rat [1]: 3.48 µL/min/mg protein
F ([2]; PO 1 mg/kg): 111%
F ([2]; PO 2.5 mg/kg): 194%
AUC(0-inf) ([2]; plasma, PO 1 mg/kg): 584 ng·h/mL
Cmax ([2]; plasma, PO 1 mg/kg): 227 ng/mL
MRT ([2]; plasma, PO 1 mg/kg): 116 min
Tmax ([2]; plasma, PO 1 mg/kg): 30 min
AUC(0-inf) ([2]; plasma, PO 2.5 mg/kg): 1590 ng·h/mL
Cmax ([2]; plasma, PO 2.5 mg/kg): 413 ng/mL
MRT ([2]; plasma, PO 2.5 mg/kg): 191 min
Tmax ([2]; plasma, PO 2.5 mg/kg): 30 min
fraction unbound at 6 h, 1 μM [3]: 0.9
Intrinsic clearance (CLint), dog liver microsomes [4]: 7.99 µL/min/mg protein

Microsomal stability, Rat [1]: 2.53 µL/min/mg protein
F ([2]; PO 0.3 mg/kg): 72%
F ([2]; PO 1 mg/kg): 70%
AUC(0-inf) ([2]; plasma, PO 0.3 mg/kg): 55.4 ng·h/mL
Cmax ([2]; plasma, PO 0.3 mg/kg): 43.2 ng/mL
MRT ([2]; plasma, PO 0.3 mg/kg): 73.2 min
Tmax ([2]; plasma, PO 0.3 mg/kg): 25.2 min
AUC(0-inf) ([2]; plasma, PO 1 mg/kg): 273 ng·h/mL
Cmax ([2]; plasma, PO 1 mg/kg): 164 ng/mL
MRT ([2]; plasma, PO 1 mg/kg): 82.2 min
Tmax ([2]; plasma, PO 1 mg/kg): 19.8 min
fraction unbound at 6 h, 1 μM [3]: 1
Intrinsic clearance (CLint), dog liver microsomes [4]: 4.32 µL/min/mg protein
Compound: CC(C)(C)NC[C@H](O)c1cccc(C#N)n1 [Compound 03-5, (S)-6-(2-(tert-butylamino)-1-hydroxyethyl)picolinonitrile]

Compound: Cc1ncccc1[C@@H](O)CNC(C)(C)C [Compound 03-115]
F ([2]; PO 0.5 mg/kg): 53%
F ([2]; PO 1.5 mg/kg): 71%
AUC(0-inf) ([2]; in vivo, PO 0.5 mg/kg): 132 ng·h/mL
Cmax ([2]; in vivo, PO 0.5 mg/kg): 72.3 ng/mL
MRT ([2]; in vivo, PO 0.5 mg/kg): 109 min
Tmax ([2]; in vivo, PO 0.5 mg/kg): 30 min
AUC(0-inf) ([2]; in vivo, PO 1.5 mg/kg): 537 ng·h/mL
Cmax ([2]; in vivo, PO 1.5 mg/kg): 387 ng/mL
MRT ([2]; in vivo, PO 1.5 mg/kg): 101 min
Tmax ([2]; in vivo, PO 1.5 mg/kg): 19.8 min
fraction unbound at 6 h, 1 μM [3]: 0.97
